# In patent US7687482B2, “Bisphosphonate compounds and methods” (The Board of Trustees of the University of Illinois, priority 2006, dated 2010):
# Like-named read-outs stand apart in the source and are kept apart here.
# What was measured:
# Gammadelta T cell = Gammadelta T cell stimulation; format: cell-based, human
# Human FPPS = molecular target: T1, Human FPPS (Homo sapiens, UniProt P14324); assay: Human FPPS inhibition; format: biochemical
# T1 sequence (P14324 1-419): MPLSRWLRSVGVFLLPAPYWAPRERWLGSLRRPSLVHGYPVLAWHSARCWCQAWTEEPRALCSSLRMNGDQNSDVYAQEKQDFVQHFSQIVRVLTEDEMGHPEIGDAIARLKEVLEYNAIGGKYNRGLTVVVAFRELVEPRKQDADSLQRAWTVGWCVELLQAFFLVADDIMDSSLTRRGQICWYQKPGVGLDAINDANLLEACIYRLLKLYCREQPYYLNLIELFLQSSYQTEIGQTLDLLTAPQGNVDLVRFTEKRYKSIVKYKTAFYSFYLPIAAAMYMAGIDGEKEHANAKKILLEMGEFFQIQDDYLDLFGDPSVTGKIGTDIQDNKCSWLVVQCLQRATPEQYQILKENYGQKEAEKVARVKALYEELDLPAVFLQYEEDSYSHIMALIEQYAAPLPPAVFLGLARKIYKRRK
# D. discoideum = D. discoideum growth inhibition; format: cell-based, Dictyostelium discoideum
# T. brucei FPPS = T. brucei FPPS (Trypanosoma brucei, UniProt Q57WF1); assay: biochemical
# Sequence of T. brucei FPPS (Q57WF1 entry or part of it): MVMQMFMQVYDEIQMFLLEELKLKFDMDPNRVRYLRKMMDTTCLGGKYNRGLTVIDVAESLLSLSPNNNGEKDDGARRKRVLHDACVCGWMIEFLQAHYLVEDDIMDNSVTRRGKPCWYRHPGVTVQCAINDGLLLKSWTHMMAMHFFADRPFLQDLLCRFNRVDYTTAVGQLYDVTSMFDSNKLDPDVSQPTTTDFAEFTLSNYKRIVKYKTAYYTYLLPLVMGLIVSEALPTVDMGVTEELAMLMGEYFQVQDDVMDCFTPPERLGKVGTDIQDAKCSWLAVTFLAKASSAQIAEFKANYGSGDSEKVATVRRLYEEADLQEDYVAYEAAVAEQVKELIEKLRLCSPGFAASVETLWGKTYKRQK
# MCF-7 cell = assay: Tumor cell growth inhibition, MCF-7; format: cell-based, human; conditions: breast cancer cell line
# Description: (§1) Bisphosphonate compounds were tested regarding tumor cell growth inhibition. […] See Table 1 and FIG. 3 showing dose-response data.
# NCI-H460 cell = assay: Tumor cell growth inhibition, NCI-H460; format: cell-based, human; conditions: lung cancer cell line
# Description: as §1
# SF-268 cell = assay: Tumor cell growth inhibition, SF-268; format: cell-based, human; conditions: central nervous system (glioblastoma) cell line
# Description: as §1
# [1] = molecular target: undecaprenyl diphosphate synthase (UPPS) (Escherichia coli, UniProt P60472); assay: UPPS inhibition; format: biochemical
# Sequence of undecaprenyl diphosphate synthase (UPPS) (P60472 whole entry): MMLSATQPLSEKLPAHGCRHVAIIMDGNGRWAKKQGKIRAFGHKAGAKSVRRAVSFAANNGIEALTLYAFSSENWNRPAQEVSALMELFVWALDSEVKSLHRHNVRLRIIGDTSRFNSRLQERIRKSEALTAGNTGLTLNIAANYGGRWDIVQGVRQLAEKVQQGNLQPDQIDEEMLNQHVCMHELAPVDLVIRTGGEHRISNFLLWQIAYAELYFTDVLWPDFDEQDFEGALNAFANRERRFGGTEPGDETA
# Description: Certain compounds were also tested regarding the ability to inhibit undecaprenyl diphosphate synthase (UPPS). See results in Table 2. […] For example, an antibacterial treatment can include contacting a bacterial cell with a compound of the invention. In an embodiment, a bacterial cell can be, e.g., a Gram negative organism such as E. coli or a Gram positive organism such as Staphylococcus aureus.
# E. coli = assay: Anti-bacterial activity in E. coli; format: cell-based, Escherichia coli
# From the text: We considered aspects of mevalonate and non-mevalonate pathway gene regulation.
# [2] = Dictyostelium discoideum; read-out: D. discoideum IC50
compound,measurement,setting,value
"1-hydroxy-3-(trimethylphosphoniumyl)propylidene-1,1-bisphosphonic acid [Compound 9]",EC50,Gammadelta T cell,1800 µM
same,Ki,Human FPPS,0.0226 µM
same,IC50,D. discoideum; read-out: D. discoideum IC50,207 µM
"NCCC(O)(P(=O)(O)O)P(=O)(O)O [1 (Pamidronate), Pamidronate, reference compound]",IC50,D. discoideum; [2],167 µM
"NCCCC(O)(P(=O)(O)O)P(=O)(O)O [2 (alendronate), alendronate, reference compound]",EC50,"Gammadelta T cell; Homo sapiens, T-cell",52 µM
same,IC50,D. discoideum; [2],32 µM
"O=P(O)(O)C(O)(Cc1cccnc1)P(=O)(O)O [3 (risedronate), risedronate, reference compound]",EC50,"Gammadelta T cell; Homo sapiens, T-cell",6.2 µM
"O=P(O)(O)C(O)(Cn1ccnc1)P(=O)(O)O [4 (zoledronate), zoledronate, reference compound]",IC50,T. brucei FPPS,0.32 µM
same,IC50,"D. discoideum; Dictyostelium discoideum, read-out: D. discoideum IC50",1.9 µM
"O=P(O)(O)C(O)(C[S+]1CCCCC1)P(=O)(O)O [Compound 6, 1-hydroxy-2-(pentamethylenesulfoniumyl)ethylidene-1,1-bisphosphonic acid]",EC50,Gammadelta T cell,22.1 µM
same,IC50,T. brucei FPPS; read-out: T. brucei FPPS IC50,0.4 µM
same,IC50,D. discoideum; read-out: D. discoideum IC50,4.78 µM
"C[P+](C)(C)CC(O)(P(=O)(O)O)P(=O)(O)O [Compound 7, 1-hydroxy-2-(trimethylphosphoniumyl)ethylidene-1,1-bisphosphonic acid]",EC50,Gammadelta T cell,127 µM
same,Ki,Human FPPS,0.00818 µM
same,IC50,T. brucei FPPS; read-out: T. brucei FPPS IC50,2 µM
same,IC50,D. discoideum; read-out: D. discoideum IC50,13.8 µM
"CC[S+](CCCOc1ccccc1)CCC(O)(P(=O)(O)O)P(=O)(O)O (centres unmarked) [Compound 16, 1-hydroxy-3-(S-ethyl-3-phenoxypropylsulfoniumyl)propylidene-1,1-bisphosphonic acid]",EC50,Gammadelta T cell,199 µM
same,Ki,Human FPPS,0.0052 µM
same,IC50,D. discoideum; read-out: D. discoideum IC50,4.23 µM
"C[S+](CCCc1ccccc1)CC(O)(P(=O)(O)O)P(=O)(O)O (centres unmarked) [Compound 23, 1-hydroxy-2-(S-methyl-3-phenylpropylsulfoniumyl)ethylidene-1,1-bisphosphonic acid]",Ki,Human FPPS,0.00568 µM
same,IC50,T. brucei FPPS; read-out: T. brucei FPPS IC50,0.18 µM
same,IC50,D. discoideum; read-out: D. discoideum IC50,1.85 µM
"O=P(O)(O)C(Cc1ccc(Br)c(Br)c1)P(=O)(O)O [Compound 491, 2-(3,4-Dibromophenyl)ethylidene-1,1-bisphosphonic acid]",IC50,MCF-7 cell,533 µM
same,IC50,NCI-H460 cell,446 µM
same,IC50,SF-268 cell,349 µM
"CC(C)(C)C(=O)OCOP(=O)(OCOC(=O)C(C)(C)C)C(Cc1ccc(Br)c(Br)c1)P(=O)(OCOC(=O)C(C)(C)C)OCOC(=O)C(C)(C)C [Compound 493, Tetrakis-pivaloyloxymethyl 2-(3,4-dibromophenyl)ethylidene-1,1-bisphosphonate]",IC50,MCF-7 cell,0.22 µM
same,IC50,NCI-H460 cell,0.62 µM
same,IC50,SF-268 cell,0.65 µM
"CC(C)(C)C(=O)OCOP(=O)(OCOC(=O)C(C)(C)C)C(Cc1ccc(Cl)c(Cl)c1)P(=O)(OCOC(=O)C(C)(C)C)OCOC(=O)C(C)(C)C [Compound 494, Tetrakis-pivaloyloxymethyl 2-(3,4-dichlorophenyl)ethylidene-1,1-bisphosphonate]",IC50,MCF-7 cell,0.34 µM
same,IC50,NCI-H460 cell,2.7 µM
same,IC50,SF-268 cell,1.43 µM
"CC(C)OC(=O)OCOP(=O)(OCOC(=O)OC(C)C)C(Cc1ccc(Cl)c(Cl)c1)P(=O)(OCOC(=O)OC(C)C)OCOC(=O)OC(C)C [Compound 495, Tetrakis-isopropoxycarboxymethyl 2-(3,4-dichlorophenyl)ethylidene-1,1-bisphosphonate]",IC50,MCF-7 cell,1.97 µM
same,IC50,NCI-H460 cell,4.85 µM
same,IC50,SF-268 cell,4.78 µM
"O=P(O)(O)C(O)(Cc1cccc(-c2cccc(-c3ccccc3)c2)c1)P(=O)(O)O [Compound 608, 1-Hydroxy-2-[3-(3-phenylphenyl)phenyl]ethylidene-1,1-bisphsophonic acid]",IC50,"MCF-7 cell; Homo sapiens, MCF7",152 µM
same,IC50,[1],0.61 µM
same,IC50,"NCI-H460 cell; Homo sapiens, NCI-H460",140 µM
same,IC50,"SF-268 cell; Homo sapiens, SF-268",130 µM
"O=P(O)(O)C(O)(CCc1cccc(-c2ccc(-c3ccccc3)cc2)c1)P(=O)(O)O [Compound 618, 1-Hydroxy-3-[3-(4-phenylphenyl)phenyl]propylidene-1,1-bisphosphonic acid]",IC50,MCF-7 cell,196 µM
same,IC50,[1],12.5 µM
same,IC50,NCI-H460 cell,132 µM
same,IC50,SF-268 cell,175 µM
"O=P(O)(O)C(O)(CCc1cccc(-c2ccccc2-c2ccccc2)c1)P(=O)(O)O [Compound 621, 1-Hydroxy-3-[3-(2-phenylphenyl)phenyl]propylidene-1,1-bisphosphonic acid]",IC50,"MCF-7 cell; Homo sapiens, MCF7",146 µM
same,IC50,[1],7.51 µM
same,IC50,"NCI-H460 cell; Homo sapiens, NCI-H460",133 µM
same,IC50,"SF-268 cell; Homo sapiens, SF-268",143 µM
"O=P(O)(O)C(O)(CCc1cccc(-c2cccc(-c3ccccc3)c2)c1)P(=O)(O)O [Compound 622, 1-Hydroxy-3-[3-(3-phenylphenyl)phenyl]propylidene-1,1-bisphsophonic acid]",IC50,"MCF-7 cell; Homo sapiens, MCF7",43.9 µM
same,IC50,[1],2.39 µM
same,IC50,"NCI-H460 cell; Homo sapiens, NCI-H460",46.9 µM
same,IC50,"SF-268 cell; Homo sapiens, SF-268",44.7 µM
"O=P(O)(O)C(O)(Cc1cccc(-c2ccccc2-c2ccccc2)c1)P(=O)(O)O [Compound 623, 1-Hydroxy-2-[3-(2-phenylphenyl)phenyl]ethylidene-1,1-bisphsophonic acid]",IC50,MCF-7 cell,92.7 µM
same,IC50,NCI-H460 cell,86.1 µM
same,IC50,SF-268 cell,58 µM
"O=P(O)(O)C(O)(Cc1ccc(-c2ccccc2-c2ccccc2)cc1)P(=O)(O)O [Compound 624, 1-Hydroxy-2-[4-(2-phenylphenyl)phenyl]ethylidene-1,1-bisphosphonic acid]",IC50,MCF-7 cell,1060 µM
same,IC50,NCI-H460 cell,329 µM
same,IC50,SF-268 cell,475 µM
"O=P(O)(O)C(O)(Cc1ccc(-c2cccc(-c3ccccc3)c2)cc1)P(=O)(O)O [Compound 625, 1-Hydroxy-2-[4-(3-phenylphenyl)phenyl]ethylidene-1,1-bisphosphonic acid]",IC50,"MCF-7 cell; Homo sapiens, MCF7",412 µM
same,IC50,[1],0.89 µM
same,IC50,"NCI-H460 cell; Homo sapiens, NCI-H460",413 µM
same,IC50,"SF-268 cell; Homo sapiens, SF-268",620 µM
"O=P(O)(O)C(O)(c1cccc(-c2cccc(-c3ccccc3)c2)c1)P(=O)(O)O [Compound 640, 1-Hydroxy-[3-(3-phenylphenyl)phenyl]methylene-1,1-bisphsophonic acid]",IC50,"MCF-7 cell; Homo sapiens, MCF7",310 µM
same,IC50,[1],1.86 µM
same,IC50,"NCI-H460 cell; Homo sapiens, NCI-H460",285 µM
same,IC50,"SF-268 cell; Homo sapiens, SF-268",303 µM
"CC(C)(C)C(=O)OCOP(=O)(OCOC(=O)C(C)(C)C)C(Cc1cccc(-c2cccc(-c3ccccc3)c2)c1)P(=O)(OCOC(=O)C(C)(C)C)OCOC(=O)C(C)(C)C [Compound 647, Tetrakis-pivaloyloxymethyl 2-[3-(3-phenylphenyl)phenyl]ethylidene-1,1-bisphosphonate]",IC50,MCF-7 cell,2.62 µM
same,IC50,NCI-H460 cell,1.64 µM
same,IC50,SF-268 cell,2.38 µM
O=CN(O)CCCP(=O)(O)O [fosmidomycin],anti-bacterial properties,E. coli,anti-bacterial properties
"Tetrakis-isopropoxycarboxymethyl 2-(3,4-difluorophenyl)ethylidene-1,1-bisphosphonate [Compound 496]",IC50,MCF-7 cell,15.2 µM
same,IC50,NCI-H460 cell,20.1 µM
same,IC50,SF-268 cell,28.3 µM
"Tetrakis-isopropoxycarboxymethyl 2-(3-cyanophenyl)ethylidene-1,1-bisphosphonate [Compound 498]",IC50,MCF-7 cell,58.6 µM
same,IC50,NCI-H460 cell,22.6 µM
same,IC50,SF-268 cell,7.77 µM
